Laboratory results: PubChem BioAssay AID330 (DTP/NCI, 2004)
Values joined by “and” are separate entries in the source; they are usually repeats but may differ in a detail not shown here. Equal entries are not always repeated. Toxic doses and inconclusive results are not listed.

System: P388 leukemia ip, CD2F1 mice, survival T/C
Assay: NCI In Vivo Anticancer Drug Screen. Data for tumor model P388 Leukemia (intraperitoneal) in CD2F1 (CDF1) mice
Conditions: endpoint: median survival time, higher = longer survival
Outline: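 Mice carrying the transplanted tumor received test compound or vehicle. Survival was recorded in each group, and the value is the treated-group measurement divided by that of the vehicle-treated control group.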

[1] = dose: 50.0 mg/kg/injection, schedule: Q01DX005 (ip), vehicle: saline with Tween-80
[2] = dose: 100.0 mg/kg/injection, schedule: Q01DX005 (ip), vehicle: saline with Tween-80
[3] = dose: 200.0 mg/kg/injection, schedule: Q01DX005 (ip), vehicle: saline with Tween-80
[4] = dose: 60.0 mg/kg/injection, schedule: Q01DX005 (ip), vehicle: saline with Tween-80
[5] = dose: 120.0 mg/kg/injection, schedule: Q01DX005 (ip), vehicle: saline with Tween-80
[6] = dose: 240.0 mg/kg/injection, schedule: Q01DX005 (ip), vehicle: saline with Tween-80
[7] = dose: 50.0 mg/kg/injection, schedule: Q01DX009 (ip), vehicle: Klucel (hydroxypropylcellulose) (HPC)
[8] = dose: 100.0 mg/kg/injection, schedule: Q01DX009 (ip), vehicle: Klucel (hydroxypropylcellulose) (HPC)
[9] = dose: 200.0 mg/kg/injection, schedule: Q01DX009 (ip), vehicle: Klucel (hydroxypropylcellulose) (HPC)
[10] = dose: 12.5 mg/kg/injection, schedule: Q01DX009 (ip), vehicle: saline with Tween-80
[11] = dose: 25.0 mg/kg/injection, schedule: Q01DX009 (ip), vehicle: saline with Tween-80
[12] = dose: 50.0 mg/kg/injection, schedule: Q01DX009 (ip), vehicle: saline with Tween-80
[13] = dose: 50.0 mg/kg/injection, schedule: Q01DX005 (ip), vehicle: Klucel (hydroxypropylcellulose) (HPC)
[14] = dose: 100.0 mg/kg/injection, schedule: Q01DX005 (ip), vehicle: Klucel (hydroxypropylcellulose) (HPC)
[15] = dose: 200.0 mg/kg/injection, schedule: Q01DX005 (ip), vehicle: Klucel (hydroxypropylcellulose) (HPC)
[16] = dose: 100.0 mg/kg/injection, schedule: Q04DX003 (ip), vehicle: saline with Tween-80
[17] = dose: 200.0 mg/kg/injection, schedule: Q04DX003 (ip), vehicle: saline with Tween-80
[18] = dose: 400.0 mg/kg/injection, schedule: Q04DX003 (ip), vehicle: saline with Tween-80
[19] = dose: 25.0 mg/kg/injection, schedule: Q01DX009 (ip), vehicle: saline
[20] = dose: 12.5 mg/kg/injection, schedule: Q01DX001 (ip), vehicle: Klucel (hydroxypropylcellulose) (HPC)
[21] = dose: 25.0 mg/kg/injection, schedule: Q01DX001 (ip), vehicle: Klucel (hydroxypropylcellulose) (HPC)
[22] = dose: 60.0 mg/kg/injection, schedule: Q01DX005 (ip), vehicle: Klucel (hydroxypropylcellulose) (HPC)
[23] = dose: 120.0 mg/kg/injection, schedule: Q01DX005 (ip), vehicle: Klucel (hydroxypropylcellulose) (HPC)
[24] = dose: 240.0 mg/kg/injection, schedule: Q01DX005 (ip), vehicle: Klucel (hydroxypropylcellulose) (HPC)
[25] = dose: 100.0 mg/kg/injection, schedule: Q01DX009 (ip), vehicle: saline with Tween-80

O=C(NCc1cc(CNC(=O)c2cccc(O)c2O)cc(CNC(=O)c2cccc(O)c2O)c1)c1cccc(O)c1O
T/C (dose: 12.5 mg/kg/injection, schedule: Q01DX005 (ip), vehicle: saline with Tween-80): 93 % of control
T/C (dose: 25.0 mg/kg/injection, schedule: Q01DX005 (ip), vehicle: saline with Tween-80): 102 % of control
T/C [1]: 99 % of control and 107 % of control

O=C(NC(O)C(Cl)(Cl)Cl)C(Cl)(Cl)Cl (stereo not given)
T/C [1]: 100 % of control
T/C [2]: 95 % of control
T/C [3]: 107 % of control

Nc1[nH]c(=O)nc2sc3ccccc3c12
T/C [1]: 102 % of control
T/C [2]: 105 % of control
T/C [3]: 102 % of control

CC1OC(Oc2ccc3c(=O)c(-c4ccc(O)cc4)coc3c2)C(O)C(O)C1O (stereo not given)
T/C [4]: 103 % of control
T/C [5]: 103 % of control
T/C [6]: 103 % of control

Cc1cc(=O)n(Nc2ccccc2)c(O)c1C#N
T/C [7]: 100 % of control
T/C [8]: 94 % of control
T/C [9]: 100 % of control

CCCCCCCCCCC(N)P(=O)(O)O (stereo not given)
T/C [10]: 104 % of control
T/C [11]: 100 % of control
T/C [12]: 100 % of control

O=C(O)C[CH2][Sn]([Cl])([Cl])[CH2]CC(=O)O
T/C [13]: 98 % of control
T/C [14]: 98 % of control
T/C [15]: 91 % of control

COc1ccc(NC(=O)c2cc3ccc4c5ccccc5[nH]c4c3cc2O)cc1
T/C [1]: 90 % of control
T/C [2]: 88 % of control

Cc1nc2ncn(-c3ccccc3)c2c(=O)n1CC(C)C
T/C [13]: 100 % of control
T/C [14]: 101 % of control
T/C [15]: 102 % of control

O=C(C1=Cc2ccccc2OC1)N1CCN(c2cccc(Cl)c2)CC1
T/C [16]: 98 % of control
T/C [17]: 102 % of control
T/C [18]: 93 % of control

CSc1nc(NC2OCC(O)C(O)C2O)c(Cl)c(=O)n1C (stereo not given)
T/C [4]: 103 % of control
T/C [5]: 104 % of control
T/C [6]: 100 % of control

O=Nc1c(O)c(Cl)cc2ccccc12
T/C (dose: 3.12 mg/kg/injection, schedule: Q01DX005 (ip), vehicle: saline with Tween-80): 101 % of control
T/C (dose: 6.25 mg/kg/injection, schedule: Q01DX005 (ip), vehicle: saline with Tween-80): 103 % of control

O=C(c1ccccc1)C(c1ccccc1)n1nc2c(c1-c1ccccc1)CCCC2 (stereo not given)
T/C [7]: 98 % of control
T/C [8]: 91 % of control
T/C [9]: 97 % of control

CNC(=O)OCc1c(COC(=O)NC)c(C)n(-c2ccc(F)cc2)c1C
T/C [19]: 155 % of control

O=C(c1ccccc1)C1C(c2ccccc2)C2(CCCCC2=O)C(c2ccccc2)CC1(O)c1ccccc1 (stereo not given)
T/C (dose: 3.12 mg/kg/injection, schedule: Q01DX001 (ip), vehicle: Klucel (hydroxypropylcellulose) (HPC)): 98 % of control
T/C (dose: 6.25 mg/kg/injection, schedule: Q01DX001 (ip), vehicle: Klucel (hydroxypropylcellulose) (HPC)): 86 % of control
T/C [20]: 86 % of control
T/C [21]: 86 % of control

S=P(Oc1ccccc1)(N1CCCCN1)N1CCCCN1
T/C [22]: 97 % of control
T/C [23]: 107 % of control
T/C [24]: 100 % of control

Cc1ccc(C)c(C(O)(c2cc(C)ccc2C)C2(O)CCCCC2)c1
T/C [1]: 106 % of control
T/C [2]: 103 % of control
T/C [3]: 97 % of control

COc1ccc(NC(=O)NNC(N)=S)cc1
T/C [12]: 96 % of control
T/C [25]: 91 % of control

Cc1ccc2snnc2c1
T/C (dose: 1.56 mg/kg/injection, schedule: Q01DX009 (ip), vehicle: Klucel (hydroxypropylcellulose) (HPC)): 98 % of control
T/C (dose: 3.12 mg/kg/injection, schedule: Q01DX009 (ip), vehicle: Klucel (hydroxypropylcellulose) (HPC)): 99 % of control
T/C (dose: 6.25 mg/kg/injection, schedule: Q01DX009 (ip), vehicle: Klucel (hydroxypropylcellulose) (HPC)): 98 % of control and 95 % of control
T/C [20]: 100 % of control
T/C [21]: 95 % of control
T/C (dose: 50.0 mg/kg/injection, schedule: Q01DX001 (ip), vehicle: Klucel (hydroxypropylcellulose) (HPC)): 99 % of control

COc1cc(C2c3c(oc4ccccc4c3=O)Oc3oc4ccccc4c(=O)c32)cc(OC)c1OC
T/C [4]: 86 % of control
T/C [5]: 87 % of control

O=C1c2ccccc2C(=O)N1CC(O)COCc1ccccc1 (stereo not given)
T/C [1]: 102 % of control
T/C [2]: 98 % of control
T/C [3]: 100 % of control

O=C(Nc1ccc(S(=O)(=O)F)cc1)/C(=C/c1cccc([N+](=O)[O-])c1)c1ccccc1
T/C [22]: 102 % of control
T/C [23]: 98 % of control
T/C [24]: 94 % of control

CCOC(=O)C(C)c1nnc(-c2ccc(OC)cc2)[nH]c1=O (stereo not given)
T/C [7]: 94 % of control
T/C [8]: 97 % of control
T/C [9]: 99 % of control

CS/C(=C\c1sc2ccccc2[n+]1C)SCC(=O)c1ccccc1
T/C (dose: 25.0 mg/kg/injection, schedule: Q04DX002 (ip), vehicle: saline with Tween-80): 100 % of control
T/C (dose: 50.0 mg/kg/injection, schedule: Q04DX002 (ip), vehicle: saline with Tween-80): 104 % of control
T/C (dose: 100.0 mg/kg/injection, schedule: Q04DX002 (ip), vehicle: saline with Tween-80): 106 % of control

CC1CC(=O)c2cc3oc(=O)n(C)c3cc21 (stereo not given)
T/C [13]: 105 % of control
T/C [14]: 94 % of control

CC(=O)CS(=O)(=O)c1ccc(NC(C)=O)cc1
T/C (dose: 50.0 mg/kg/injection, schedule: Q01DX009 (ip), vehicle: suspension in saline): 105 % of control
T/C (dose: 100.0 mg/kg/injection, schedule: Q01DX009 (ip), vehicle: suspension in saline): 94 % of control
T/C (dose: 200.0 mg/kg/injection, schedule: Q01DX009 (ip), vehicle: suspension in saline): 101 % of control

Cc1c(-c2ccccc2)nc2sccn12
T/C [19]: 102 % of control
T/C (dose: 50.0 mg/kg/injection, schedule: Q01DX009 (ip), vehicle: saline): 102 % of control
T/C (dose: 100.0 mg/kg/injection, schedule: Q01DX009 (ip), vehicle: saline): 96 % of control

COc1cc2oc3cc(=O)cc4oc(-c5ccccc5)cc(c2c2c1CCC(c1ccccc1)O2)c43 (stereo not given)
T/C (dose: 3.25 mg/kg/injection, schedule: Q01DX005 (ip), vehicle: Klucel + Tween-80): 98 % of control
T/C (dose: 6.5 mg/kg/injection, schedule: Q01DX005 (ip), vehicle: Klucel + Tween-80): 99 % of control
T/C (dose: 13.0 mg/kg/injection, schedule: Q01DX005 (ip), vehicle: Klucel + Tween-80): 103 % of control
T/C (dose: 26.0 mg/kg/injection, schedule: Q01DX005 (ip), vehicle: Klucel + Tween-80): 107 % of control

CC1=C/C(=N/N=c2\ccn(O)cc2C)C=CC1=N
T/C (dose: 3.13 mg/kg/injection, schedule: Q01DX009 (ip), vehicle: saline with Tween-80): 100 % of control
T/C (dose: 6.25 mg/kg/injection, schedule: Q01DX009 (ip), vehicle: saline with Tween-80): 95 % of control
T/C [10]: 104 % of control
T/C [11]: 98 % of control

CCCCN1C(=O)/C(=C/c2ccco2)SC1=S
T/C [12]: 101 % of control
T/C [25]: 104 % of control
T/C (dose: 200.0 mg/kg/injection, schedule: Q01DX009 (ip), vehicle: saline with Tween-80): 102 % of control

CC1=CC(S)NC(=S)N1 (stereo not given)
T/C [4]: 101 % of control
T/C [5]: 105 % of control
T/C [6]: 102 % of control

CCCCOC1NC(=O)Oc2ccccc21 (stereo not given)
T/C [4]: 100 % of control and 103 % of control and 97 % of control
T/C [5]: 101 % of control and 108 % of control (2×)
T/C [6]: 100 % of control and 109 % of control

NC(=S)c1ccc(C=Nc2ccc(Cl)cc2)cc1
T/C (dose: 50.0 mg/kg/injection, schedule: Q01DX001 (ip), vehicle: other): 102 % of control
T/C (dose: 100.0 mg/kg/injection, schedule: Q01DX001 (ip), vehicle: other): 98 % of control

OC(Cc1cnc2ccccc2n1)(C(F)(F)F)C(F)(F)F
T/C [16]: 109 % of control
T/C [17]: 95 % of control
T/C [18]: 90 % of control
